The record followed here is publication PMC6934184, “Selective DNA-PKcs inhibition extends the therapeutic index of localized radiotherapy and chemotherapy” (The Journal of Clinical Investigation, 2019).

The target in the assay is T1, FGFR3 (Homo sapiens, UniProt P22607).
T1 construct: purchased Thermo Fisher Scientific (Life Technologies) SelectScreen
Kind of assay: SelectScreen Z'LYTE. It counts as biochemical. Summed up: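 SelectScreen broad panel; activity (Z'LYTE, Adapta) plus binding formats. ATP: Km app for CSF1R Z'LYTE; 10 for CAMK1 Adapta. Readout = % per kinase.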

T1 sequence (P22607 23-806): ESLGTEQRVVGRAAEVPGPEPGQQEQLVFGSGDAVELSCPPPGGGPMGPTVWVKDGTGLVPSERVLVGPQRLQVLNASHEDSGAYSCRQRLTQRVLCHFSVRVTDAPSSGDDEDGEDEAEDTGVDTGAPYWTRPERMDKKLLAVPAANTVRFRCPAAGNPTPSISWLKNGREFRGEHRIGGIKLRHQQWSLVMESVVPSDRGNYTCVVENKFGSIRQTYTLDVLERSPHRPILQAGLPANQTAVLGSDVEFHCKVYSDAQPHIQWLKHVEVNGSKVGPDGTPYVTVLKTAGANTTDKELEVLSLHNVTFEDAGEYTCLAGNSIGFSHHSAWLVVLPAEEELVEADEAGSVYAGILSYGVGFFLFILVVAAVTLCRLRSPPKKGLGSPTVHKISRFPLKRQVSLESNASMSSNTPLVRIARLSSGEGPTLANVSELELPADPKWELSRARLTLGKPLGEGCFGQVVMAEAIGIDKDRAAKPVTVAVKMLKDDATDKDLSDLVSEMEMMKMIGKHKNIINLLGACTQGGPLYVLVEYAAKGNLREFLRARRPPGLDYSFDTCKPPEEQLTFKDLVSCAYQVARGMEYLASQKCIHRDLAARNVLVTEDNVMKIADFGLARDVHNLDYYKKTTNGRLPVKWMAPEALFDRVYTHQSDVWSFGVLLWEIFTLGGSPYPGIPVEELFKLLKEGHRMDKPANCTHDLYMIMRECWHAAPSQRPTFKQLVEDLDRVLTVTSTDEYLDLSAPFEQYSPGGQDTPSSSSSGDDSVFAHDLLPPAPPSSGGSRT

The compound `CN(C(=O)CN1CCOCC1)c1ccc2sc3c(-c4cccc5c(=O)cc(N6CC7CCC(C6)O7)oc45)cccc3c2c1` [NU5455] showed an inhibition at 1 µM of 0.9%.

A word on the inhibition: it is the percentage by which the read-out fell short of the control. Lower therefore signals little suppression.
